Tests used:
Type in all cases: cell-based, human
[1] = tested on: foreskin cells in which senescence was induced by doxorubicin; test: CellTiter-Glo cell viability of doxorubicin-induced senescent foreskin cells (Examples 1-2, 10, 11, 13; Tables 4, 63, 65); conditions: Homo sapiens, 72 h, doxorubicin-induced senescent foreskin cells, CellTiter-Glo, 0 μM = 100, read-out: Survival (%); for viability at 1.1 µM: 1.1 μM test compound; for viability at 10 µM: 10 μM test compound; for viability at 30 µM: 30 μM test compound; for viability at […]: […] test compound; for viability at 90 µM: 90 μM test compound
Protocol: After 3 days, cell viability was measured using CellTiter-Glo Luminescent Cell Viability Assay (Promega) or light microscopy.

HMGN1 [2] = test: HMGN1 ELISA in culture medium of foreskin cells (Examples 10, 11; Tables 62, 63, 64); conditions: Homo sapiens, doxorubicin-treated foreskin cells, DMSO = 100; for activity at 30 µM: 30 μM test compound, read-out: HMGN1
HMGN1 [3] = test: HMGN1 ELISA in culture medium of A549 cancer cells (Example 12, Table 66); conditions: Homo sapiens, A549, doxorubicin-induced senescent A549 cells, ELISA, DMSO = 100, read-out: HMGN1 (amount of HMGN1 secreted in the cell culture); for activity at 30 µM: test compound 30 μM; for activity at 90 µM: test compound 90 μM
A549 = test: CellTiter-Glo cell viability of senescent A549 cancer cells (Example 12, Table 67); conditions: Homo sapiens, A549, doxorubicin-induced senescent A549 cancer cells, CellTiter-Glo, read-out: Survival (%); for viability at 1.1 µM: 1.1 μM test compound; for viability at 10 µM: 10 μM test compound; for viability at 30 µM: 30 μM test compound; for viability at 90 µM: 90 μM test compound; for viability at 270 µM: 270 μM test compound

Row | Compound | viability at 1.1 µM [1] [%] | viability at 10 µM [1] [%] | viability at 30 µM [1] [%] | viability at […] [1] [%] | activity at 30 µM (HMGN1 [2]) [%] | activity at 30 µM (HMGN1 [3]) [%] | viability at 1.1 µM (A549) [%] | viability at 10 µM (A549) [%] | viability at 30 µM (A549) [%] | activity at 90 µM (HMGN1 [3]) [%] | viability at 90 µM (A549) [%] | viability at 90 µM [1] [%] | viability at 270 µM ([1]; 270 μM test compound) [%] | activity at 270 µM (HMGN1 [2]; 270 μM test compound) [%] | activity at 270 µM (HMGN1 [3]; test compound 270 μM) [%] | viability at 270 µM (A549) [%] | activity at 90 µM (HMGN1 [2]; 90 μM test compound) [%]
1 | Cc1c(O)cccc1C(=O)N[C@@H](CSc1ccccc1)[C@H](O)CN1C[C@H]2CCCC[C@H]2C[C@H]1C(=O)NC(C)(C)C [LX-1905, Nelfinavir, reference compound] | 102 | 27.9 | 13.2 | 66.4 | 315 | 201 | 100 | 89.1 | 53.9 | – | – | – | – | – | – | – | –
2 | CCN(CC)C1CCN(Cc2cc(C#CCNc3ccccc3)cc(I)c2O)CC1 [LX-910] | 95.6 | 68.4 | 1.1 | 84.7 | 278 | – | 95.8 | 76.9 | 47.5 | 238 | 2.7 | – | – | – | – | – | –
3 | CC(C)Oc1ccc(-c2ccccc2)cc1-n1c(CN2CCN(C(=O)COc3ccc(Cl)cc3)CC2)nc2ccccc2c1=O [LX-1001] | 89.9 | 57.7 | 34.5 | 81.8 | 231 | – | 95.5 | 92.2 | 71.8 | 183 | 25.3 | – | – | – | – | – | –
4 | CC(=O)N[C@@H](Cc1c[nH]c2ccccc12)C(=O)N[C@@H](CCC(=O)C=[N+]=[N-])C(=O)OC(C)C [LX-3201, Sirpiglenastat, reference compound] | 99.3 | 20.1 | – | 91.9 | 286 | 309 | 96.5 | 68.1 | 12.8 | – | – | – | – | – | – | – | –
5 | CCc1nc(C(N)=O)c(Nc2ccc(N3CCC(N4CCN(C)CC4)CC3)c(OC)c2)nc1NC1CCOCC1 [LX-3303, Gilteritinib, reference compound] | 83.9 | 13.9 | – | 69.4 | 275 | 239 | 101 | 53.8 | 11.7 | – | – | – | – | – | – | – | –
6 | NCC(=O)CCC(=O)O [LX-1103, 5-Aminolevulinic acid, reference compound] | 104 | 99.6 | 95.2 | 98.9 | – | – | 96.6 | 95.1 | 91 | – | 91.1 | 88 | 61.3 | 172 | 158 | 63.7 | –
7 | CC1(C)CC[C@]2(CO)CC[C@]3(C)[C@H](C(=O)C=C4[C@@]5(C)[C@H]6O[C@@]6(C#N)C(=O)C(C)(C)[C@@H]5CC[C@]43C)[C@@H]2C1 [LX-2318] | 78.3 | – | – | 12.1 | 264 | 278 | 94.1 | 31.1 | – | – | – | – | – | – | – | – | –
8 | C[C@@H]1[C@H]2[C@H]3C(=O)C=C4[C@@]5(C)C=C(C#N)C(=O)C(C)(C)[C@@H]5CC[C@@]4(C)[C@]3(C)CC[C@@]2(CO)CC[C@H]1C [LX-2512] | 38.2 | – | – | 3.2 | 276 | 274 | 88.5 | 11.7 | – | – | – | – | – | – | – | – | –
9 | O=C(O)c1cc(/N=N/c2ccc(S(=O)(=O)Nc3ccccn3)cc2)ccc1O [LX-1302, Sulfasalazine, reference compound] | 102 | 92.2 | 79.6 | 105 | – | – | 95.5 | 102 | 102 | 147 | 69.6 | 52.4 | – | – | – | 19.8 | 171
10 | Cc1noc([C@]23CCC(C)(C)C[C@H]2[C@H]2C(=O)C=C4[C@@]5(C)C=C(C#N)C(=O)C(C)(C)[C@@H]5CC[C@@]4(C)[C@]2(C)CC3)n1 [LX-2401] | 46.4 | – | – | 6.8 | 303 | 284 | 108 | 15.9 | – | – | – | – | – | – | – | – | –

Reference: patent publication US20250108036A1, “COMPOSITIONS FOR REMOVING SENESCENT CELLS AND USES THEREOF” (LIFECEUTIX CO., LTD., priority 2021, published 2025)
